We go through three compounds from patent US11579141B2, “Methods for identifying a non-healing skin wound and for monitoring the healing of a skin wound” (AKRIBES BIOMEDICAL GMBH, priority 2016, dated 2023).

Test [1] concerns primary human dermal fibroblasts (HDF). The test can be described thus: Primary human dermal fibroblast (HDF) proliferation assay (2D), SRB staining. In kind it is cell-based. How it is done: Primary human dermal fibroblasts (HDF) were purchased from CELLnTEC, Bern. They were routinely grown in Dulbecco's modified Eagle's medium (DMEM) containing 10% FCS, 2 mM glutamine, and 100 U/ml penicillin/100 μg/ml streptomycin. Media, antibiotics, and glutamine were bought from Lonza. The cells were used at passage 10. Cells were trypsinized and seeded at 5000 cells/well in 200 μl into the inner wells of 96-well plates. The outer wells were loaded with sterile water. The cells were allowed to adhere overnight and then incubated for 72 hours at 37° C. under the following conditions: graded compound concentrations or 20 ng/ml PDGF-BB (Tonbo Biosciences # TO-21-8501-U010) in the absence or presence of different dilutions of sterile-filtered WE in medium. For negative control samples, 200 μl medium was added instead of specific stimuli. Alternatively, the cells were seeded into 384-well plates at 2500 cells/well together with test compounds or growth factors and WE or medium in a total volume of 50 μl. […]
Total cellular protein was determined as a measure of cell number by staining the fixed cells with sulforhodamine B (SRB, Sigma). […] After drying, the dye was eluted with 10 mM Tris.HCl, pH8.5, and absorbance was measured either at 550 or 492 nm for lower and higher cell densities, respectively. The average absorbance of the sample representing the day 1 starting cell number (for 96-well plates) was subtracted from the absorbance values of the WE-treated cells.
All experiments were carried out in triplicate for each sample and concentration, and means±standard deviation (SD) were used for the evaluation of the experiment. Results are expressed as percentage of control values for unstimulated cells.
For screening with WE, compound results were calculated as % proliferation of untreated and unstimulated control (=100%), and the cut-off for a positive hit was defined as % average proliferationWE+3*standard deviation, as shown in FIG. 5.
(In general: Sulforhodamine B stains cellular protein and so reports cell mass.)

The test system of test [2] is chronic wounds. The following applies: non-steroidal anti-inflammatory drug; cited from earlier work.

Turning to `CNC(=O)[C@H](Cc1c[nH]c2ccccc12)NC(=O)[C@@H](CC(=O)NO)CC(C)C` [GM6001], the “effect on the effect of wound exudate on HDF proliferation” value in test [1] (in presence of WE #49 (highest MMP activity), FIG. 22) is on record as “partially reverses”. Further, the “effect on HDF proliferation” value in test [1] (medium or WE without MMP activity, FIG. 22) is “no effect”. `CC(C)Cc1ccc(C(C)C(=O)O)cc1` (stereo not shown) [ibuprofen]: the effectiveness in wounds entry in test [2] was “only effective in ameliorating wound pain”. Regarding PDGF, in test [1] (in presence of aggressive, non-healing WE #49, FIG. 21), the “effect on the growth inhibitory effect of wound exudate in 2D fibroblast proliferation” value is “only partially reverses”.
